Data taken from PubChem BioAssay (NCI).
Values joined by “and” are separate entries in the source; they are usually repeats but may differ in a detail not shown here. Equal values may be shown once.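 Grown in 96-well plates, cells were treated for 48 hours with each compound at five concentrations. Insufficient inhibition: endpoint recorded as highest concentration tested. GI50: concentration for 50% inhibition of growth. TGI marks complete inhibition of growth.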

Assays:
Assay in all cases: inhibition of tumour cell growth, NCI panel, 48 h
SW-620 colon = test system: SW-620 colon
UO-31 renal = test system: UO-31 renal
OVCAR-3 ovarian = test system: OVCAR-3 ovarian
KM12 colon = test system: KM12 colon
U251 CNS = test system: U251 CNS
HCC-2998 colon = test system: HCC-2998 colon
SK-MEL-2 melanoma = test system: SK-MEL-2 melanoma
MALME-3M melanoma = test system: MALME-3M melanoma
NCI-H522 lung = test system: NCI-H522 lung
DU-145 prostate = test system: DU-145 prostate

| SMILES | TGI (SW-620 colon) | TGI (UO-31 renal) | TGI (OVCAR-3 ovarian) [µM] | TGI (KM12 colon) [µM] | TGI (U251 CNS) [µM] | TGI (HCC-2998 colon) [µM] | TGI (SK-MEL-2 melanoma) [µM] | TGI (MALME-3M melanoma) [µM] | TGI (NCI-H522 lung) | TGI (DU-145 prostate) | GI50 (SW-620 colon) | GI50 (UO-31 renal) [µM] | GI50 (OVCAR-3 ovarian) | GI50 (HCC-2998 colon) | GI50 (NCI-H522 lung) | GI50 (DU-145 prostate) [µM] | GI50 (KM12 colon) [µM] | GI50 (U251 CNS) [µM] | GI50 (SK-MEL-2 melanoma) [µM] | GI50 (MALME-3M melanoma) [µM] |
| --- | --- | --- | --- | --- | --- | --- | --- | --- | --- | --- | --- | --- | --- | --- | --- | --- | --- | --- | --- | --- |
| CN(C)CCNC(=O)c1cccc2c1nc(-c1ccc(F)cc1)c1ccccc12 | 14.8 µM | 4.51 µM | 18.7 | 19.3 | 16.5 | 16.7 | 22.3 |  |  |  |  |  |  |  |  |  |  |  |  |  |
| CC(C)N(C(=O)C12C3C4C1C1C2C3C41C#N)C(C)C (centres undefined) | > 100 µM | > 100 µM | > 100 | > 100 | > 100 | > 100 | > 100 | > 100 | > 100 µM |  |  |  |  |  |  |  |  |  |  |  |
| Cc1ccc(C(=O)CC2(O)C(=O)Nc3c(C)cc(Cl)cc32)cc1 (centres undefined) | > 100 µM | > 100 µM | > 100 | > 100 | > 100 | > 100 | > 100 | > 100 | > 100 µM |  |  |  |  |  |  |  |  |  |  |  |
| COC(=O)C(=O)Cc1nc2ccccc2s1 | > 100 µM | > 100 µM | > 100 |  | > 100 | > 100 | > 100 | > 100 | > 100 µM |  |  |  |  |  |  |  |  |  |  |  |
| COC(=O)CCSC(=O)Nc1ccc(N=Nc2ccccc2)cc1 | > 100 µM | > 100 µM | 74.9 | > 100 | > 100 | 59 |  | > 100 |  |  |  |  |  |  |  |  |  |  |  |  |
| O=C(c1ccc(O)cc1O)C1C(c2ccc(O)cc2)OC(c2ccc(O)cc2)C1C(=O)c1ccc(O)cc1O (centres undefined) | > 100 µM | 76.9 µM | 40 | > 100 | 32.9 | 33.3 | 40.3 | 31.2 | 34.3 µM |  |  |  |  |  |  |  |  |  |  |  |
| COc1ccc(N2C(=O)c3c(c4[nH]c5ccccc5c4c4ccc(C(C)(C)C)cc34)C2=O)cc1 | > 100 µM | > 100 µM | 53.6 | > 100 | 42.7 | > 100 | 71.8 | > 100 | > 100 µM |  |  |  |  |  |  |  |  |  |  |  |
| COC1=C(N)C(=O)c2nc(-c3nc(C(=O)O)c(C)c(-c4ccc(OC)c(OC)c4O)c3N)ccc2C1=O | 0.00424 µM and 0.0268 µM and 0.0181 µM | 0.02 µM and 0.0176 µM | 0.0395 |  |  |  |  |  | 0.0214 µM and < 0.0111 µM | 0.0409 µM and 0.0193 µM | 0.00124 µM and 0.00653 µM | < 0.01 | 0.0283 µM and 0.0169 µM | 0.00121 µM and 0.00468 µM | 0.000527 µM and 0.00336 µM and < 0.01 µM |  |  |  |  |  |
| CCOC1=C2N=C(C(CC)c3ccccc3F)N=C2C(=O)c2ccccc21 (centres undefined) | > 100 µM | > 100 µM | > 100 | > 100 | > 100 | > 100 | > 100 | > 100 | > 100 µM |  |  |  |  |  |  |  |  |  |  |  |
| Cc1ccc(NC(=O)CCc2nc(=S)[nH][nH]2)cc1 | > 100 µM | > 100 µM | > 100 | > 100 | > 100 |  | > 100 | > 100 | > 100 µM |  |  |  |  |  |  |  |  |  |  |  |
| Cc1ccccc1N=Nc1c(O)ccc2ccccc12 | > 100 µM | > 100 µM | > 100 | > 100 | > 100 |  | > 100 | > 100 | > 100 µM | > 100 µM |  |  |  |  |  |  |  |  |  |  |
| CCOC(=O)C(C)(NC(=O)c1ccc(NCc2ccc3nc(NC(=O)c4ccccc4)nc(NC(=O)c4ccccc4)c3c2)cc1)C(=O)OCC | > 100 µM | 34.9 µM | 22.1 |  | 21 | 69.7 | 34.7 | 38 | 32.1 µM |  |  |  |  |  |  |  |  |  |  |  |
| COc1cc2ccc3c4ccccc4cnc3c2cc1OC | > 100 µM | > 100 µM | > 100 | > 100 | > 100 | > 100 | > 100 | > 100 | > 100 µM |  |  |  |  |  |  |  |  |  |  |  |
| Nc1ccc2n[se]nc2c1 | > 100 µM | > 100 µM |  | > 100 | > 100 | > 100 | > 100 | > 100 |  |  |  |  |  |  |  |  |  |  |  |  |
| CCOC(=O)c1c(-c2ccccc2)[n+](=O)c2cc(Cl)c(Cl)cc2n1[O-] | 37.1 µM | > 100 µM | 4.41 | 2.77 | 6.01 |  | > 100 |  | > 100 µM | 22.9 µM | 16.5 µM | 3.03 | 1.8 µM |  | 14.2 µM | 9.4 | 1.31 | 2.33 | 18.9 |  |
| CC(=O)C1CCN(c2ccccc2)C1 (centres undefined) | > 100 µM | > 100 µM | > 100 | > 100 | > 100 |  | > 100 |  | > 100 µM |  |  |  |  |  |  |  |  |  |  |  |
| COc1cc(-c2cc(/C=C/C(=O)c3ccc(F)c(F)c3)[nH]n2)cc(OC)c1OC | > 100 µM | 14.2 µM | 6.25 | 11.4 | 15.7 | 34.1 | 5.89 | 9.4 | 4.48 µM |  | 3.42 µM | 2.63 | 2.39 µM | 3.69 µM | 1.57 µM |  | 3.06 | 2.9 | 2.3 | 2.96 |
| COC1C2C[C@@H](O)CCC2C(C(=O)OCCl)C[C@H]1O (some centres undefined) | > 100 µM | > 100 µM | > 100 | > 100 | > 100 | > 100 | > 100 | > 100 | > 100 µM |  |  |  |  |  |  |  |  |  |  |  |
| NC1NC=NC2C1N=CN2C1OC(CO)C2[O][Sn][O]C21 (centres undefined) | > 100 µM | > 100 µM | > 100 | > 100 | > 100 | > 100 | > 100 | > 100 | > 100 µM |  | > 100 µM | > 100 | > 100 µM | > 100 µM | > 100 µM |  | > 100 | > 100 | > 100 | > 100 |
| CCN1CCN(c2nc(C)cc(N(CCCNc3ccnc4cc(Cl)ccc34)Cc3ccc4c(c3)OCO4)n2)CC1 | 3.12 µM | 2.64 µM | 3.96 | 10.8 | 3.17 | 3.85 | 3.5 | 3.34 | 3.39 µM |  | 1.4 µM | 1.31 | 1.61 µM | 1.62 µM | 1.66 µM |  | 2.42 | 1.56 | 1.83 | 1.77 |
